In the oligonucleotide strings, read from the 5' end, every base follows the letter of its sugar. An asterisk marks phosphorothioate; unmarked linkages are phosphodiester. Other units and linkages are bracketed, terminal groups are in braces. A string of capitals states the bases alone. {NAG37} = tridentate N-acetyl-galactosamine targeting ligand, structure (NAG37)s; [invAb] = inverted abasic unit; m = 2'-O-methyl; f = 2'-fluoro
Columns and labels:
ANGPTL3 gene [1] = experiment: Example 8: serum triglycerides in cynomolgus monkeys; type: in vivo, cynomolgus macaque (Macaca fascicularis); conditions: 3.0 mg/kg single SC injection day 1, cynos, n=2
Description: (§1) Additional ANGPTL3 RNAi agents were evaluated in cynomolgus monkeys. On day 1, cynomolgus macaque (Macaca fascicularis) primates (also referred to herein as “cynos”) were administered a single subcutaneous injection of 0.3 mL/kg (approximately 1-2 mL volume, depending on animal mass) containing 3.0 mg/kg of one of ANGPTL3 RNAi agent AD05577, AD05307, AD05488, AD05654, or AD05659, each formulated in saline.
(§2) Two (2) cynos in each group were tested (n=2). Blood samples were drawn and serum samples were analyzed on days −8 (pre-dose), 1 (pre-dose), 8, 15, 22, 29, and 36. Cynos were fasted overnight prior to each collection. ANGPTL3 protein levels in serum were measured by ELISA assay (R&D Systems), according to the manufacturer's recommendations. Triglycerides, total cholesterol, high-density lipoprotein (HDL), and low-density lipoprotein (LDL) in serum were measured on a Cobas® Integra 400 (Roche Diagnostics), according to the manufacturer's recommendations.
(§3) The ANGPTL3 protein levels, triglyceride levels, total cholesterol levels, HDL levels, and LDL levels for each animal were normalized. For normalization, the level of ANGPTL3 protein, triglyceride, HDL, and total cholesterol, respectively, for each animal at a time point, was divided by the average pre-treatment level of expression in that animal (in this case at days −8, and 1 (pre-dose)) to determine the ratio of expression “normalized to pre-treatment.”

ANGPTL3 protein = experiment: Example 8: serum ANGPTL3 protein by ELISA in cynomolgus monkeys; type: in vivo, cynomolgus macaque (Macaca fascicularis); conditions: for Avg ANGPTL3 protein normalized to pre-treatment: 3.0 mg/kg single SC injection day 1, cynos, n=2
Description: as §1, §2, §3

ANGPTL3 gene [2] = experiment: Example 2: serum triglycerides in mice; type: in vivo
Description: (§4) To assess the in vivo activity of ANGPTL3 RNAi agents that are designed to target different positions on the ANGPTL3 gene, six- to eight-week-old female C57bl/6 mice were used. Pre-dose serum samples were taken at day −1 after a four hour fast. At day 1, each mouse was given a single subcutaneous administration of 200 μl containing either 3 mg/kg (mpk) of an ANGPTL3 RNAi agent in D5W (dextrose in 5% water), or control (D5W) with no RNAi agent, according to the dosing groups recited in Table 7.
(§5) Each of the RNAi agents included a modified sequence and an N-acetyl-galactosamine-containing targeting ligand conjugated to the 5′ terminal end of the sense strand. (See Tables 3, 4, and 5 for modified sequences and targeting ligand structures). The injections were performed between the skin and muscle (i.e. subcutaneous injections) into the loose skin over the neck and shoulder area. Three (3) mice in each group were tested (n=3). Serum was collected on days 8, […], 22, 29, and day 36 (for Groups 1 and 5-11 only). Mice were fasted for four hours prior to each collection. ANGPTL3 protein levels in serum were measured by ELISA assay (R&D Systems), according to the manufacturer's recommendations. Triglycerides, high-density lipoprotein (HDL), and total cholesterol in serum were measured on a Cobas® Integra 400 (Roche Diagnostics), according to the manufacturer's recommendations.
(§6) The ANGPTL3 protein levels, triglyceride levels, HDL levels, and total cholesterol levels for each animal were normalized. For normalization, the level of ANGPTL3 protein, triglyceride, HDL, and total cholesterol, respectively, for each animal at a time point, was divided by the pre-treatment level of expression in that animal (in this case at day −1) to determine the ratio of expression “normalized to pre-treatment.” Expression at a specific time point was then normalized to the D5W control group by dividing the “normalized to pre-treatment” ratio for an individual animal by the mean “normalized to pretreatment” ratio of all mice in the D5W control group.

ANGPTL3 gene [3] = experiment: Example 8: serum total cholesterol in cynomolgus monkeys; type: in vivo, cynomolgus macaque (Macaca fascicularis); conditions: 3.0 mg/kg single SC injection day 1, cynos, n=2
Description: as §1, §2, §3

ANGPTL3 gene [4] = experiment: Example 2: serum HDL in mice; type: in vivo
Description: as §4, §5, §6

ANGPTL3 gene [5] = experiment: Example 8: serum HDL in cynomolgus monkeys; type: in vivo, cynomolgus macaque (Macaca fascicularis); conditions: 3.0 mg/kg single SC injection day 1, cynos, n=2
Description: as §1, §2, §3

[6] = Day 8, 3.0 mg/kg single subcutaneous dose on day 1, female C57bl/6 mice
[7] = Day 13, 3.0 mg/kg single subcutaneous dose on day 1, female C57bl/6 mice
[8] = Day 22, 3.0 mg/kg single subcutaneous dose on day 1, female C57bl/6 mice
[9] = Day 29, 3.0 mg/kg single subcutaneous dose on day 1, female C57bl/6 mice
[10] = Day 36, 3.0 mg/kg single subcutaneous dose on day 1, female C57bl/6 mice

In the case of “AD05307: RNAi agent duplex: antisense AM07001-AS, sense AM07000-SS (chain 1 mU*fU*mU*fGmAfAmUfUmAfAmUfGmUfCmCfAmUfGmGmG*mC; chain 2 {NAG37}*[invAb]*mGmCmCmCmAmUmGmGfAfCfAmUmUmAmAmUmUmCmAmAmA*[invAb])”, the “Avg TG normalized to pre-treatment” value (ANGPTL3 gene [1]; Day 8) is reported as 1.157, the “Avg TG normalized to pre-treatment” value (ANGPTL3 gene [1]; Day 15) is reported as 1.058 and the “Avg TG normalized to pre-treatment” value (ANGPTL3 gene [1]; Day 22) is reported as 0.895. The “Avg TG normalized to pre-treatment” value (ANGPTL3 gene [1]; Day 29) was 0.969, the “Avg TG normalized to pre-treatment” value (ANGPTL3 gene [1]; Day 36) was 0.806 and the “Avg ANGPTL3 protein normalized to pre-treatment” value (from here on “Avg ANGPTL3 protein normalized”) (ANGPTL3 protein; Day 8) was 0.486. For the same substance, the “Avg ANGPTL3 protein normalized” value (ANGPTL3 protein; Day 15) was 0.402, the “Avg ANGPTL3 protein normalized” value (ANGPTL3 protein; Day 22) was 0.726 and the “Avg ANGPTL3 protein normalized” value (ANGPTL3 protein; Day 29) was 0.518. For the same substance, the “Avg ANGPTL3 protein normalized” value (ANGPTL3 protein; Day 36) was 0.392, the “reduction in ANGPTL3 protein compared to pre-treatment” value (ANGPTL3 protein; all measured time points, single 3.0 mg/kg subcutaneous, cynomolgus monkeys) was “reduction” and the “Avg TG (Average Triglycerides Normalized to Pre-Treatment and Control)” value (ANGPTL3 gene [2]; [6]) was 0.504. For the same substance, the “Avg TG (Average Triglycerides Normalized to Pre-Treatment and Control)” value (ANGPTL3 gene [2]; [7]) was 0.655, the “Avg TG (Average Triglycerides Normalized to Pre-Treatment and Control)” value (ANGPTL3 gene [2]; [8]) was 0.459 and the “Avg TG (Average Triglycerides Normalized to Pre-Treatment and Control)” value (ANGPTL3 gene [2]; [9]) was 0.629. The “Avg TG (Average Triglycerides Normalized to Pre-Treatment and Control)” value (ANGPTL3 gene [2]; [10]) was 0.602, the “Avg Total Chol normalized to pre-treatment” value (“Avg Total Chol normalized” for short) (ANGPTL3 gene [3]; Day 8) was 0.994 and the “Avg Total Chol normalized” value (ANGPTL3 gene [3]; Day 15) was 1.006. The “Avg Total Chol normalized” value (ANGPTL3 gene [3]; Day 22) was 0.905, the “Avg Total Chol normalized” value (ANGPTL3 gene [3]; Day 29) was 0.954 and the “Avg Total Chol normalized” value (ANGPTL3 gene [3]; Day 36) was 0.909. For the same substance, the “Avg HDL (Average HDL Normalized to Pre-Treatment and Control)” value (ANGPTL3 gene [4]; [6]) was 0.633, the “Avg HDL (Average HDL Normalized to Pre-Treatment and Control)” value (ANGPTL3 gene [4]; [7]) was 0.524 and the “Avg HDL (Average HDL Normalized to Pre-Treatment and Control)” value (ANGPTL3 gene [4]; [8]) was 0.588. The “Avg HDL (Average HDL Normalized to Pre-Treatment and Control)” value (ANGPTL3 gene [4]; [9]) was 0.724, the “Avg HDL (Average HDL Normalized to Pre-Treatment and Control)” value (ANGPTL3 gene [4]; [10]) was 0.702 and the “Average HDL Normalized to Pre-Treatment” value (ANGPTL3 gene [5]; Day 8) was 1.007. The “Average HDL Normalized to Pre-Treatment” value (ANGPTL3 gene [5]; Day 15) was 0.946, the “Average HDL Normalized to Pre-Treatment” value (ANGPTL3 gene [5]; Day 22) was 0.879 and the “Average HDL Normalized to Pre-Treatment” value (ANGPTL3 gene [5]; Day 29) was 0.998. For the same substance, the “Average HDL Normalized to Pre-Treatment” value (ANGPTL3 gene [5]; Day 36) was 0.863.
